Assay results reported in ChEMBL document CHEMBL1201862, “PubChem BioAssay data set” (2004).
Active and inactive are the calls of the source.

Tests used:
[1] = molecular target: Endoplasmic reticulum aminopeptidase 1 (Homo sapiens, UniProt Q9NZ08); assay: ERAP1 aminopeptidase inhibitors, dose response, biochemical, cherry-pick, set 2, plate reader (AID 743314)
[2] = molecular target: Tyrosyl-DNA phosphodiesterase 2 (Homo sapiens, UniProt O95551); assay: human TDP2 enzyme inhibitors, dose response, biochemical, epi absorbance, IC50 (AID 743297)
[3] = human group III sPLA2 inhibitors, dose response, biochemical, QFRET, IC50 (AID 743457);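 note: green fluorescence rise as the enzyme cleaves BODIPY PC-A2 in liposomes; potency for inhibition of the enzyme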
cells [4] = format: functional, cell-based
INS1 = assay: beta cell apoptosis inhibitors, cytokine rescue, dose response, luminescence, retest (AID 449756); format: functional, cell-based; conditions: Rattus norvegicus;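 note: cell death triggered by IL-1 beta plus TNF-alpha plus IFN-gamma mixture; protective hits raise ATP signal compared with cytokine alone wells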
[5] = tested on: Streptococcus sp. 'group A'; assay: growth inhibition of control SK(-) GAS strain, dose response, counter-screen for streptokinase expression inhibitor project, luminescence, kanamycin, BacTiterGlo, confirmation (AID 1900); format: functional, organism-based
Streptococcus = assay: Group A Streptococcus viability loss, dose response, counter-screen for streptokinase expression inhibitor project, luminescence, BacTiterGlo (AID 1915); format: functional, organism-based;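 note: potency for reduction of bacterial viability or growth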
cells [6] = format: functional, cell-based; remark: listed apart in the source
[7] = molecular target: Luciferin 4-monooxygenase (Photinus pyralis, UniProt P08659); assay: firefly luciferase enzyme inhibitors, dose response, biochemical, luminescence (AID 1891)
[8] = HEK293T cytotoxicity, dose response, cytotoxicity control for miR-122 modulator project, cell-based, inhibitor set, cherry-pick, set 2 (AID 720697); format: functional
[9] = molecular target: T1, Sentrin-specific protease 7 (Homo sapiens, UniProt Q9BQF6); format: functional;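 note: Luminescence-based dose-response confirmation of ultra-high-throughput screening hits, measuring inhibition of SENP7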
T1 sequence (Q9BQF6 whole entry): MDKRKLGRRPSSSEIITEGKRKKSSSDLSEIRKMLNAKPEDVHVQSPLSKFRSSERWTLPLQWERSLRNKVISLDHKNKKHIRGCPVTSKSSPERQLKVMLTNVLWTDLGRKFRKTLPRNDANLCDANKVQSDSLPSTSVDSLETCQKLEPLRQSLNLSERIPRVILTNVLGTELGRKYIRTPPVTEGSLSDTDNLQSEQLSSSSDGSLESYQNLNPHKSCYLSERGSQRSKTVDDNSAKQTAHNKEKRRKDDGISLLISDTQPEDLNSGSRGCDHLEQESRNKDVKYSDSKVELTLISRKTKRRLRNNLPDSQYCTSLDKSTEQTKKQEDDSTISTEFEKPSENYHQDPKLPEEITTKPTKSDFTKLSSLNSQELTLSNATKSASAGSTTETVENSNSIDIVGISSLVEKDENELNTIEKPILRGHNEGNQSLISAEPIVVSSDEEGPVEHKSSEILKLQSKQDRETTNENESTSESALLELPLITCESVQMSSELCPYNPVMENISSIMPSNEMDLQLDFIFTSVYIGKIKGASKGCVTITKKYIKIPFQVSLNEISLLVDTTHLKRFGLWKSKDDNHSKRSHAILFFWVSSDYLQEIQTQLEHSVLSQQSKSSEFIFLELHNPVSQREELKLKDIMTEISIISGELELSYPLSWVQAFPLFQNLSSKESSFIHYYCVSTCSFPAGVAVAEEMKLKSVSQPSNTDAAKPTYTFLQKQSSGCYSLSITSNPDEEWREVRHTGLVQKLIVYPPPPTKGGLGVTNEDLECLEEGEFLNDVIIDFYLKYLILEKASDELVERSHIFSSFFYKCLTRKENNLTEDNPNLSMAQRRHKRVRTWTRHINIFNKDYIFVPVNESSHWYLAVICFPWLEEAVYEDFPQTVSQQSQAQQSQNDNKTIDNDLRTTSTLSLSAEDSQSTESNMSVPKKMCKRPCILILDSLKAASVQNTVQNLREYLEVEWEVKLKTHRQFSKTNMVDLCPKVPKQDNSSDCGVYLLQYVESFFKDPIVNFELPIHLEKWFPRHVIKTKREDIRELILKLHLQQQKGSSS

[10] = molecular target: T2, Sentrin-specific protease 8 (Homo sapiens, UniProt Q96LD8); format: functional;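 note: luminescence read-out of SENP8 inhibition, dose-response confirmation following an ultra-high-throughput screen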
T2 sequence (Q96LD8 whole entry): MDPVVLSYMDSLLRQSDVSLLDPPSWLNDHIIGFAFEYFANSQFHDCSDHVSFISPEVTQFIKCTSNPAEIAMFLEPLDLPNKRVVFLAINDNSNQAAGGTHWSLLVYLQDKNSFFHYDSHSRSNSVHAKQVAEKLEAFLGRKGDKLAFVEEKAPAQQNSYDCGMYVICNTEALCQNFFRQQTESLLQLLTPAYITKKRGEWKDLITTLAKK

[11] = molecular target: T3, Sentrin-specific protease 6 (Homo sapiens, UniProt Q9GZR1); format: functional;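 note: Luminescence-based dose-response confirmatory assay of SENP6 inhibition, following up an ultra-high-throughput screen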
T3 sequence (Q9GZR1 whole entry): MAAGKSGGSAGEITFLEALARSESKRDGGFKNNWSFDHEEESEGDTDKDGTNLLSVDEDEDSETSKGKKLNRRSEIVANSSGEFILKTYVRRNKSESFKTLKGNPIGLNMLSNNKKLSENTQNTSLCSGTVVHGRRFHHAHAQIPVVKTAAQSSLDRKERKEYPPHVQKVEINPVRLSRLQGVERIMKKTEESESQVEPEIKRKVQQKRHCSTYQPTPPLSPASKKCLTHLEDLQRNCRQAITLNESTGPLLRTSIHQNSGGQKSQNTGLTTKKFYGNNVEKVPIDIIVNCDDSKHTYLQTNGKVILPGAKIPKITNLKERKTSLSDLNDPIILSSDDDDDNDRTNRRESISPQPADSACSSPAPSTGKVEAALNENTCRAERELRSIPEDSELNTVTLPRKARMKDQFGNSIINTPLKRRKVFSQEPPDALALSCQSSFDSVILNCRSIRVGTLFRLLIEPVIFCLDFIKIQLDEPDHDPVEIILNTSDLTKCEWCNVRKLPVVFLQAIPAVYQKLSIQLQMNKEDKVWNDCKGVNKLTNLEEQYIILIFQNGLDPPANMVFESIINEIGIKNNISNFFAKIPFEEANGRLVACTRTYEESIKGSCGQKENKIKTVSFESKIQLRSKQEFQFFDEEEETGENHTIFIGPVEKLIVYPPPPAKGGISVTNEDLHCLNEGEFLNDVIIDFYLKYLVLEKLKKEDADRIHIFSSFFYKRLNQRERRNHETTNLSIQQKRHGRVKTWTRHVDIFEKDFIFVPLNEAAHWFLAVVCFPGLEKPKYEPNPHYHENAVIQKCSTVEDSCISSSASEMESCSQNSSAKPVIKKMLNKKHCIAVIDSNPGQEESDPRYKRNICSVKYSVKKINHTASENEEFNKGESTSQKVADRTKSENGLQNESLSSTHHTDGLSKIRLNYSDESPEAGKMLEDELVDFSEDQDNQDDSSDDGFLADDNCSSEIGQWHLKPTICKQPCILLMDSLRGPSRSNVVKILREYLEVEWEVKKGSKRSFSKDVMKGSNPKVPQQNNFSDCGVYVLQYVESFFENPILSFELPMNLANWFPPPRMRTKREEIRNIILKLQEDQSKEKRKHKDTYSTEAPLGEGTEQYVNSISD

Caspase-3 = molecular target: T4, Caspase-3 (Homo sapiens, UniProt P42574); format: functional;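 note: Dose-response selectivity test against caspase-3 for candidate inhibitors of sentrin-specific proteases (SENPs)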
T4 sequence (P42574 whole entry): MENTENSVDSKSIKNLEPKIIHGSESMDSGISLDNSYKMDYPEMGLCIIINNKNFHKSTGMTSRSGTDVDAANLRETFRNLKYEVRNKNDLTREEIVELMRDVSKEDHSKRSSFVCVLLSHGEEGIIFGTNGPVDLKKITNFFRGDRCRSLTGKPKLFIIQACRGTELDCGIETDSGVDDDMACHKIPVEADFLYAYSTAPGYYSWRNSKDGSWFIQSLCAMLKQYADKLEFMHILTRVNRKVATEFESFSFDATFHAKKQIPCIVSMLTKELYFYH

[12] = molecular target: T5, Probable nicotinate-nucleotide adenylyltransferase (Staphylococcus aureus (strain N315), UniProt P65502); format: functional, Staphylococcus aureus subsp. aureus N315;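 for IC50 Mean: confirmatory dose-response retesting of NadD inhibitor hits first found in an ultra-high-throughput screen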
[13] = Luminescence Cell-Based Dose Confirmation HTS to Identify Inhibitors of Platelet Dense Granule Release. [Related pubchem assays: 1663 (Primary HTS), 1678 (Summary of Project)]; format: functional
[14] = molecular target: T5, Probable nicotinate-nucleotide adenylyltransferase; format: functional, Staphylococcus aureus subsp. aureus N315; conditions: read-out: IC50_Mean
[15] = cytotoxicity in COV434 cells, dose response, cytotoxicity control for PAX8 inhibitor project, cell-based, plate reader, dry powder, SA7 (AID 743145); format: functional
Paired box protein Pax-8 = Paired box protein Pax-8 (Homo sapiens, UniProt Q06710); assay: inhibitors of PAX8-driven TPO luciferase reporter, dose response, RMG-I cells, cherry-pick (AID 687027); format: functional, cell-based;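 note: luciferase reporter driven by Pax8 target thyroperoxidase promoter measured by SteadyGlo luminescence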
[16] = cytotoxicity in OV-90 ovarian cancer cells, dose response, PAX8 inhibitor project, cell-based, plate reader, dry powder, SA8 (AID 743149); format: functional
[17] = cytotoxicity in COV362 ovarian cancer cells, dose response, cytotoxicity control for PAX8 inhibitor project, cell-based, plate reader, dry powder, SA12 (AID 743144); format: functional
[18] = cytotoxicity in OVCAR4 cells, dose response, cytotoxicity control for PAX8 inhibitor project, cell-based, plate reader, dry powder, SA11 (AID 743150); format: functional; conditions: OVCAR-4
Kallikrein-7 = Kallikrein-7 (Homo sapiens, UniProt P49862); assay: Fluorescence Intensity-based biochemical primary high throughput dose response assay to identify activators of kallikrein-7 (K7) zymogen.
[19] = cytotoxicity in OVCAR8 ovarian cancer cells, dose response, PAX8 project, cell-based, plate reader, dry powder samples (AID 743197); format: functional; conditions: OVCAR-8
[20] = inhibitors of CMV-promoter luciferase reporter, dose response, counter-screen for Pax8 inhibitor project, cell-based, HEK293, luminescence, dry powder (AID 743020); format: functional
[21] = IOSE-T80 ovarian epithelial cell cytotoxicity, dose response, cytotoxicity control for PAX8 inhibitor project, plate reader, dry powder samples (AID 743045); format: functional, cell-based
[22] = non-specific cell cytotoxicity, dose response, cytotoxicity control for PAX8 inhibitor project, plate reader, dry powder samples (AID 743021); format: functional, cell-based
[23] = A2780 ovarian cancer cell cytotoxicity, dose response, cytotoxicity control, plate reader, dry powder samples (AID 743046); format: functional, cell-based
[24] = IGROV1 ovarian cancer cell cytotoxicity, dose response, PAX8 inhibitor project, plate reader, dry powder samples (AID 743043); format: functional, cell-based; conditions: IGROV-1
[25] = NIH:OVCAR-3 ovarian cancer cell cytotoxicity, dose response, PAX8 inhibitor project, plate reader, dry powder samples (AID 743044); format: functional, cell-based

Sequence of Paired box protein Pax-8 (Q06710 whole entry): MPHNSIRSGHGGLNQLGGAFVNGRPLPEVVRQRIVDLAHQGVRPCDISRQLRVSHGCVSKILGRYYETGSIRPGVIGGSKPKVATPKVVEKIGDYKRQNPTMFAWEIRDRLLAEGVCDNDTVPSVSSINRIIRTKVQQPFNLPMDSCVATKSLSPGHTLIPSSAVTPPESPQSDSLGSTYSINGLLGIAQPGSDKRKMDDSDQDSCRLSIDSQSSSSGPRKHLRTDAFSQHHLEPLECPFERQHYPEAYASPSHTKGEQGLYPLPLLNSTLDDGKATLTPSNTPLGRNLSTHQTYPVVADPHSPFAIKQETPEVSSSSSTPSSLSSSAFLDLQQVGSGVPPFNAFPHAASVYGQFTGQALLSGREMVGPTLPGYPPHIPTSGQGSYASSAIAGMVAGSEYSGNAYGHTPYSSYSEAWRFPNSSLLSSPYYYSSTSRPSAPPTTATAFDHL
T5 sequence (P65502 whole entry): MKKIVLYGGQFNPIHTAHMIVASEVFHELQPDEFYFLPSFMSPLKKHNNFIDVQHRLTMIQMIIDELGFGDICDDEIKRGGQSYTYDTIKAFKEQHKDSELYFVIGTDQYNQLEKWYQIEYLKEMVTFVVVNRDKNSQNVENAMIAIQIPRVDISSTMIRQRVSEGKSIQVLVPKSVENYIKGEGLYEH
Sequence of Endoplasmic reticulum aminopeptidase 1 (Q9NZ08 whole entry): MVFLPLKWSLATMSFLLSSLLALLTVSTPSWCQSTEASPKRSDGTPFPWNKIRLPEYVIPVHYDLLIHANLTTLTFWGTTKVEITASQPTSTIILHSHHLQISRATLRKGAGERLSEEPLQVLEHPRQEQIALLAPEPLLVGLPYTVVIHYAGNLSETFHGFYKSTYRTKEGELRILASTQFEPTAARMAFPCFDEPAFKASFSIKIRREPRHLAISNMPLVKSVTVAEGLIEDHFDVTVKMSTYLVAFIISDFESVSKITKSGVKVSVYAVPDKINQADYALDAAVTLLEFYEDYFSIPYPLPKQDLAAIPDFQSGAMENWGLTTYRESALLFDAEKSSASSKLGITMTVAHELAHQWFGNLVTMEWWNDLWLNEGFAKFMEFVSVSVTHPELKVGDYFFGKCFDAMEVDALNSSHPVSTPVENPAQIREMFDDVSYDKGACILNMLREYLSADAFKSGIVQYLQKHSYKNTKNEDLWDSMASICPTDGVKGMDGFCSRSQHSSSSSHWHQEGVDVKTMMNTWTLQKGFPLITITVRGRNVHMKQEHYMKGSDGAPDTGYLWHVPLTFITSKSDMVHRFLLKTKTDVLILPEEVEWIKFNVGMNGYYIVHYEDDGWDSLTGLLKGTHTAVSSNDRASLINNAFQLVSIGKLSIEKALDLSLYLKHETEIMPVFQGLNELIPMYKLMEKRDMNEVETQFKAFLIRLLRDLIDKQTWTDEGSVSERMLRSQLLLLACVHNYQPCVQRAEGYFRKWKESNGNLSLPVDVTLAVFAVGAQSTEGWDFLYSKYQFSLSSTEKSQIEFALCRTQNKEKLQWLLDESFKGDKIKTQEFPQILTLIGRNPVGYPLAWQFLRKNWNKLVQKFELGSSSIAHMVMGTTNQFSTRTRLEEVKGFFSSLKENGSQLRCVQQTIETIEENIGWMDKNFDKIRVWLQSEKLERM
Sequence of Tyrosyl-DNA phosphodiesterase 2 (O95551 whole entry): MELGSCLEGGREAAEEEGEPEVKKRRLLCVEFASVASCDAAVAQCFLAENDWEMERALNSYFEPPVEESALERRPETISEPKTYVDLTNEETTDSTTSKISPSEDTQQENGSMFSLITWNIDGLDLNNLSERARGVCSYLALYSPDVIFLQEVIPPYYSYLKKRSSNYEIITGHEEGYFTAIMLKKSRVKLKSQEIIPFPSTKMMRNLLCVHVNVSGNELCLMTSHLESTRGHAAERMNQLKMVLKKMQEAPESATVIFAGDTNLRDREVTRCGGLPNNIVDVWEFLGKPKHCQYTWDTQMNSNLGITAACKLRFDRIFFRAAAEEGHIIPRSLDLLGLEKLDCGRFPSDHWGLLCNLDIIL
Sequence of Luciferin 4-monooxygenase (P08659 whole entry): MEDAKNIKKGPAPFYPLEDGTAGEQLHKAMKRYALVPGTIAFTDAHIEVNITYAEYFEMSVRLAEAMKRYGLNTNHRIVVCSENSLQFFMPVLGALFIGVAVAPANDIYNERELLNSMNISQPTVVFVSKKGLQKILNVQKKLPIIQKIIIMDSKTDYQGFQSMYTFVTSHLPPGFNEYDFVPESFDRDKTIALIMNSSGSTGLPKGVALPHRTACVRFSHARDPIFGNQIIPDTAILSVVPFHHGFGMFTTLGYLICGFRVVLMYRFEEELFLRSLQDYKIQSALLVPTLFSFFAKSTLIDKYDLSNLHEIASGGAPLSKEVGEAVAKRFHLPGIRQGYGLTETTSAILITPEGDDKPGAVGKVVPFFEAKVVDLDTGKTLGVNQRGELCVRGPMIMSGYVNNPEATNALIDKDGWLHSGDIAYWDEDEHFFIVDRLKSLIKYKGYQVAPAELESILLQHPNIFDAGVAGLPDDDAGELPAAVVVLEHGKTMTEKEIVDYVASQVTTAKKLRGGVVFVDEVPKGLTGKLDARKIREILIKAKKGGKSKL
Sequence of Kallikrein-7 (P49862 whole entry): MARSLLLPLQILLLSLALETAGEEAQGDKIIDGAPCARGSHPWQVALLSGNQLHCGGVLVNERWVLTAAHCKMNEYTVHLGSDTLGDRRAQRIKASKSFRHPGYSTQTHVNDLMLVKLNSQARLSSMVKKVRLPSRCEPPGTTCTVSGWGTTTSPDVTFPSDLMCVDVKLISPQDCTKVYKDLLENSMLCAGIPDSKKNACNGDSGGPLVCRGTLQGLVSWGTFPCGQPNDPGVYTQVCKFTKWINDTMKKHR

With CCC(=O)N(C)C[C@H]1Oc2ncc(C#Cc3ccncc3)cc2C(=O)N([C@H](C)CO)C[C@H]1C the AC50 [1] was 2.92 µM (active).

In the case of Nc1c2c(O)nc(O)cc2nn1-c1ccccc1, the IC50 [2] is reported as 79.9 µM (inactive).

With Cc1cccc(N=C(S)NNC(=O)c2ccc(O)cc2O)c1C the IC50 [3] was > 122 µM (inactive).

With Cc1ccn2c(Nc3ccccc3C)c(-c3ccccn3)nc2c1 the EC50 (cells [4]) was 146 µM (active), the AC50 (INS1) was 5.32 µM (active) and the EC50 [5] was 2.75 µM (active). The EC50 (Streptococcus) was 6.24 µM (active), the IC50 [3] was 67.9 µM (inactive) and the EC50 (cells [6]) was > 350 µM (not active).

With Cc1cc(=O)oc2c(CN3CCCC3)c(O)c(Cl)cc12 the AC50 [1] was 5.76 µM (active).

With COc1cccc(OCc2cc(/C=N/Nc3ccc(C(=O)O)cc3)ccc2OC)c1 the EC50 [7] was 4.64 µM (active), the AC50 [8] was 7.48 µM (active) and the IC50 [9] was 8.85 µM (active). For the same compound, the IC50 [10] was 15.7 µM (active), the IC50 [11] was 6.91 µM (active) and the IC50 (Caspase-3) was 22.4 µM (active). For the same compound, the IC50 [12] was 7.37 µM (active), the EC50 [13] was 84.7 µM (active) and the IC50 [14] was 25.5 µM (active).

With CN1CC(=O)N2C(c3ccc(Cl)cc3)c3[nH]c4ccccc4c3C[C@H]2C1=O (stereo partly drawn) the AC50 [15] was 21.4 µM (active), the AC50 (Paired box protein Pax-8) was 10.3 µM (active) and the AC50 [16] was > 100 µM (inactive). The AC50 [17] was 9.73 µM (active) and the AC50 [18] was 10.3 µM (active).

With COc1cc2ccccc2cc1C(=O)OCC(=O)N1CCOCC1 the EC50 (Kallikrein-7) was > 69.5 µM (inactive).

In the case of C[C@@H]1CN([C@H](C)CO)C(=O)c2cc(NS(=O)(=O)c3ccc(Cl)cc3)ccc2O[C@@H](C)CCCCO[C@H]1CN(C)Cc1ccc(C(F)(F)F)cc1, the AC50 [19] is reported as 21.6 µM (active), the AC50 [20] is reported as 31.8 µM (active) and the AC50 [21] is reported as 20.2 µM (active). For the same compound, the AC50 [22] was 3.68 µM (active), the AC50 [23] was 10.8 µM (active) and the AC50 [24] was 21.3 µM (active). For the same compound, the AC50 (Paired box protein Pax-8) was 6.62 µM (active) and the AC50 [25] was 10.6 µM (active).
